Data taken from patent US20220160686A1, “MACROCYCLIC AZOLOPYRIDINE DERIVATIVES AS EED AND PRC2 MODULATORS” (Fulcrum Therapeutics, Inc., priority 2019, published 2022).
Read-outs that look alike come from different tables or passages of the source.

Experiments:
[1] = tested on: human P-glycoprotein HEK cells (HEK-P-gp); assay: H3K27me3 immunocytochemistry assay in P-gp expressing HEK293T cells, with or without elacridar; format: cell-based; conditions: Homo sapiens, 4 days compound treatment
Protocol: A plasmid encoding the human ABCB1 gene under the control of a CMV promoter was purchased from Origene (Cat #RC216080). The HEK293T cells were purchased from ATCC (Cat #CRL-3216) and were cultured for expansion in the recommended conditions. The HEK293T cells were transfected with 2 ug of the pCMV-ABCB1 plasmid using Lipofectamine 3000 following recommendations from the manufacturer (ThermoFisher Scientific, Cat #L3000008). After 24 h, cells were dissociated, and 5000 cells were seeded on a 10 cm tissue culture dish. On the next day, fresh media containing 5 nM Vinblastine (Sigma, Cat #V1377) was added, and media containing compound was replenished every 72 h. After surviving cells reached confluency, cells were passaged, and lines were maintained in the presence of 2.5 nM Vinblastine until further characterization.
P-gp expressing HEK293T, HUDEP2, and Human Mobilized Peripheral Blood Primary CD34+ cells were cultured for use in an H3K27me3 immunocytochemistry assay. HUDEP2 and Human Mobilized Peripheral Blood Primary CD34+ cells were cultured for use in an HbF immunocytochemistry assay. P-gp expressing HEK293T cells were maintained and passaged every 3-4 days by plating 300,000 viable cells in a T-25 culture flask containing 6 mLs of 293 Passaging Media comprised of DMEM (ThermoFisher #10566016), 10% fetal bovine serum (ThermoFisher #A3160502), 1% penicillin-streptomycin (ThermoFisher #15140122), and 2.5 nM Vinblastine (Sigma #V1377). To evaluate the inhibitory effect of the compounds of the present disclosure and their brain penetrant properties via P-gp mediated efflux, the H3K27me3 immunocytochemistry assay was conducted in the presence or absence of 250 nM of the P-gp inhibitor, elacridar. Poor brain penetrant compounds were expected to show higher potencies in the presence of Elacridar. However, brain penetrant compounds would show similar potencies irrespective of whether Elacridar is present or not. In these experiments plates without elacridar were seeded with P-gp expressing HEK293T cells at 1000 viable cells per well in a poly-d-lysine coated 384-well plate (Corning Cat #356697) in 45 μL of 293 Assay Media comprised of DMEM (ThermoFisher #10566016), 10% fetal bovine serum (ThermoFisher #A3160502), 1% penicillin-streptomycin (ThermoFisher #15140122). A replicate set of plates were seeded under the same conditions with 45 μL of 293 Assay Media supplemented with 250 nM of Elacridar to inhibit P-gp activity. Compounds were serially diluted at 10× concentration in 293 Media, and 5 μL transferred to their respective wells on both sets of plates for a total volume of 50 μL per well. The compound treated HEK293T cells were allowed to incubate for 4 days at 37° C., 85% relative humidity, and 5% CO2 before proceeding to ICC Fix and Stain protocol.
The Fix and Stain Protocol was the same for HEK293T, HUDEP2, and Primary CD34+ cell assays except the specific primary and secondary antibodies used for detection. Following 4 days of compound treatment, the respective plates were washed once with 25 μL of PBS (ThermoFisher #10010023) and fixed with 25 μL of 4% paraformaldehyde (ThermoFisher #28908) for 10 minutes at room temperature. The plates were then washed three times with 25 μL of PBS. Subsequent to that, the cells were permeabilized and blocked for 1 hour at room temperature in 25 μL of Perm/Block buffer comprised of IX PBS, 1% bovine serum albumin (ThermoFisher #A3294), 10% fetal bovine serum (ThermoFisher #A3160502), 0.3M glycine (Sigma #G7126), and 0.1% tween-20 (Sigma #P7949). This was followed by additional washing (three times) of the plates with 25 μL of 0.1% tween in PBS.
For the H3K27me3 assay, the cells were incubated overnight at 4° C. with 25 μL of H3K27me3 Primary Antibody (Cell Signaling #9733) diluted 1:200 in 0.1% tween-20 in PBS. […]

[2] = target: T1, biotinylated AVI-tagged EED (76-441) (Homo sapiens, UniProt O75530); assay: EED binding SPR assay; conditions: 1:1 binding model; read-out: KD, equilibrium dissociation constant as measured by surface plasmon resonance (SPR)
T1 construct: GST (N, cleaved yes); made in house; host or cells: E. coli BL21(DE3), co-expressed with pGro7
Protocol: Biotinylated AVI-tagged EED was produced using standard molecular biology techniques. A pGEX plasmid with a GST-preScission-cleavage-site-AVI-EED(76-441) sequence was placed into E. coli BL21(DE3) cells and co-expressed with pGro7. The E. coli were grown in shaker flasks in LB with ampicillin at 37° C. at 110 rpm to an OD600=0.7. At this time the temperature was lowered to 15° C. and IPTG was added to 0.3 mM. The cells were allowed to express overnight. Cells were then harvested.
For purification, the E. coli cell pellet was lysed into a buffer of 50 mM Tris pH 8.0, 500 mM NaCl, 5% glycerol and 5 mM DTT. The lysate was loaded onto a GSTrap FF column from GE Healthcare. After washing, the bound protein was eluted with 50 mM Tris pH 8.0, 500 mM NaCl, 5% glycerol, 5 mM DTT and 15 mM GSH. The collected fractions were combined and incubated with PreScission enzyme overnight at 4° C. The cleaved protein was then passed through a GSTrap FF column in a buffer of 50 mM Tris pH 8.0, 500 mM NaCl, 5% glycerol and 5 mM DTT. The cleaved protein was confirmed through mass spectrometry. The AVI-EED(76-441) was then buffer exchanged into 50 mM Bicine pH 8.3, 10 mM ATP, 10 mM magnesium acetate and 50 μM D-Biotin. 3 mg of BirA enzyme was added to the system and incubated at 4° C. for 2 hours to biotinylate the AVI-EED(76-441). The biotinylated-AVI-EED(76-441) was then buffer exchanged into 20 mM Tris pH 8.0 and 400 mM NaCl and passed through a size exclusion column of Superdex 200 16/60 Increase. The purified monomeric biotinylated-AVI-EED(76-441) was confirmed through SDS-PAGE, LC-MS and analytical size exclusion chromatography.
All surface plasmon resonance (SPR) assays were performed using a GE Biacore S200 utilizing GE Biotin CAPture chips. Capturing of CAP reagents was performed with a flow rate of 2 μL/min for 90 seconds. For protein capturing, a solution of 50 μg/mL of biotinylated AVI-tagged EED (76-441) in 10 mM HEPES pH 7.4, 150 mM NaCl, 0.05% Tween 20 and 2% DMSO (Running Buffer) was flowed over the chip with a flow rate of 5 μL/min for a contact time of 30 seconds. Final readings were 2200-2400 RU. For compounds, 7 concentrations were made with 3-dilutions using the Running Buffer for a total of 300 μL of each concentration in a 96-well microplate. During the binding experiments, a flow rate of […] was used for an association time of 90 seconds followed by a disassociation time of 180 seconds. The compartment temperature was set at 10° C. with the chip at 25° C. During regeneration the flow rate was set to 30 μL/min for 30 seconds. All fittings were done using a 1:1 binding model.

[3] = HEK293, 96 h, without elacridar, read-out: IC50, inhibitory activity on human P-glycoprotein HEK cells (HEK-P-gp)
[4] = HEK293, with 250 nM elacridar, read-out: IC50, inhibitory activity on human P-glycoprotein HEK cells (HEK-P-gp) pretreated with elacridar

T1 sequence (O75530 76-441 limits assumed): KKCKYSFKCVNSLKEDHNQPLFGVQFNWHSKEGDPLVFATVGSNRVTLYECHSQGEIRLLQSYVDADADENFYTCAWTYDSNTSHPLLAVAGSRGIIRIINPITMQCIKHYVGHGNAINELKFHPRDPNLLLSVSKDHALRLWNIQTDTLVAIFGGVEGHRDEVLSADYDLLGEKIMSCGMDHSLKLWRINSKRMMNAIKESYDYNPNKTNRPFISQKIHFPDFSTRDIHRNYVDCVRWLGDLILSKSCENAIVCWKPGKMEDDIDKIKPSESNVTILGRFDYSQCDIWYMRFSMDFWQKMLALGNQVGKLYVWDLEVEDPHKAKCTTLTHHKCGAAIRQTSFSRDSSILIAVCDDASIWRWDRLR

SMILES | IC50 [1, 3] | IC50 [1, 4] | Kd [2]
Cn1ncc(O)c1-c1cc2c(n3cnnc13)NCc1c(F)ccc3c1C(CO3)CO2 [Compound 196, (S)-5-(12-fluoro-7a,8,13,14-tetrahydro-7H-[1,2,4]triazolo[4′,3′:1,6]pyrido[3,2-b]benzofuro[4,3-fg][1,4]oxazonin-4-yl)-1-methyl-1H-pyrazol-4-ol] | 25 to 50 nM | 50 to 100 nM | < 2.5 nM
Cc1ncc(-c2cc3c(n4cnnc24)NCc2c(F)ccc4c2[C@@H](CO4)CO3)cc1N [Compound 179, (S)-5-(12-fluoro-7a,8,13,14-tetrahydro-7H-[1,2,4]triazolo[4′,3′:1,6]pyrido[3,2-b]benzofuro[4,3-fg][1,4]oxazonin-4-yl)-2-methylpyridin-3-amine] | > 500 nM | 100 to 500 nM | < 2.5 nM
Cn1nccc1-c1cc2c(n3cc(C(=O)O)nc13)NCc1c(F)ccc3c1[C@@H](CO3)CO2 [Compound 174, (S)-5-fluoro-12-(1-methyl-1H-pyrazol-5-yl)-6,7,15,15a-tetrahydro-1H-benzofuro[4,3-fg]imidazo[r,2′:1,6]pyrido[3,2-b][1,4]oxazonine-10-carboxylic acid] | – | – | 5 to 10 nM
COc1ccc(-c2cc3c(n4cnnc24)NCc2c(F)ccc4c2[C@H](CO4)CO3)c(C)n1 [Example 106] | 50 to 100 nM | 25 to 50 nM | < 2.5 nM
CNC(=O)CCc1ccc(-c2cc3c(n4cnnc24)NCc2c(F)ccc4c2C(CO4)CO3)c(C)n1 [Compound 191, (S)-3-(5-(12-fluoro-7a,8,13,14-tetrahydro-7H-[1,2,4]triazolo[4′,3′:1,6]pyrido[3,2-b]benzofuro[4,3-fg][1,4]oxazonin-4-yl)-6-methylpyridin-2-yl)-N-methylpropanamide] | 50 to 100 nM | 100 to 500 nM | < 2.5 nM
Cc1cn(C)c(-c2cc3c(n4cnnc24)NCc2c(F)ccc4c2C(CO4)CO3)n1 (stereo in doubt) [Compound 135, (S)-4-(1,4-dimethyl-1H-imidazol-2-yl)-12-fluoro-7a,8,13,14-tetrahydro-7H-[1,2,4]triazolo[4',3':1,6]pyrido]3,2-b]benzofuro[4,3-fg][1,4]oxazonine] | 50 to 100 nM | 50 to 100 nM | < 2.5 nM
CC(=O)N1CC=C(c2cc3c(n4cnnc24)NCc2c(F)ccc4c2[C@@H](CO4)CO3)CC1 [Compound 193, (S)-1-(4-(12-fluoro-7a,8,13,14-tetrahydro-7H-[1,2,4]triazolo[4′,3′:1,6]pyrido[3,2-b]benzofuro[4,3-fg][1,4]oxazonin-4-yl)-3,6-dihydropyridin-1(2H)-yl)ethan-1-one] | 25 to 50 nM | 50 to 100 nM | < 2.5 nM
CN1CCN(c2ccc(-c3cc4c(n5cnnc35)NCc3c(F)ccc5c3[C@H](CO5)CO4)cn2)CC1 [Example 117] | 100 to 500 nM | 50 to 100 nM | < 2.5 nM
Cc1ncc(O)cc1-c1cc2c(n3cnnc13)NCc1c(F)ccc3c1[C@@H](CO3)CO2 [Compound 194, (S)-5-(12-fluoro-7a,8,13,14-tetrahydro-7H-[1,2,4]triazolo[4′,3′:1,6]pyrido[3,2-b]benzofuro[4,3-fg][1,4]oxazonin-4-yl)-6-methylpyridin-3-ol] | 50 to 100 nM | 50 to 100 nM | < 2.5 nM
Cc1ccnc(-c2cc3c(n4cnnc24)NCc2c(F)ccc4c2C(CO4)CO3)c1 (stereo in doubt) [Compound 149, (S)-12-fluoro-4-(4-methylpyridin-2-yl)-7a,8,13,14-tetrahydro-7H-[1,2,4]triazolo[4',3':1,6]pyrido]3,2-b]benzofuro[4,3-fg][1,4]oxazonine] | > 500 nM | > 500 nM | 10 to 50 nM
Cc1ccc(C(F)F)c(-c2cc3c(n4cnnc24)NCc2c(F)ccc4c2[C@@H](CO4)CO3)n1 [Compound 144] | 100 to 500 nM | 100 to 500 nM | 2.5 to 5 nM
COc1nc(C)ccc1-c1cc2c(n3cnnc13)NCc1c(F)ccc3c1[C@H](CO3)CO2 [Example 105] | 100 to 500 nM | 100 to 500 nM | 5 to 10 nM
Cc1cncnc1-c1cc2c(n3cnnc13)NCc1c(F)ccc3c1[C@@H](CO3)CO2 [Compound 162, (S)-12-fluoro-4-(5-methylpyrimidin-4-yl)-7a,8,13,14-tetrahydro-7H-[1,2,4]triazolo[4′,3′:1,6]pyrido[3,2-b]benzofuro[4,3-fg][1,4]oxazonine] | 25 to 50 nM | 50 to 100 nM | 2.5 to 5 nM
Cn1ncc(C#N)c1-c1cc2c(n3cnnc13)NCc1c(F)ccc3c1C(CO3)CO2 [Compound 170, (S)-5-(12-fluoro-7a,8,13,14-tetrahydro-7H-[1,2,4]triazolo[4′,3′:1,6]pyrido[3,2-b]benzofuro[4,3-fg][1,4]oxazonin-4-yl)-1-methyl-1H-pyrazole-4-carbonitrile] | 100 to 500 nM | 100 to 500 nM | < 2.5 nM
Fc1ccc2c3c1CNc1c(cc(-c4cnc(C5CC5)nc4)c4nncn14)OC[C@@H]3CO2 [Compound 178, (S)-4-(2-cyclopropylpyrimidin-5-yl)-12-fluoro-7a,8,13,14-tetrahydro-7H-[1,2,4]triazolo[4′,3′:1,6]pyrido[3,2-b]benzofuro[4,3-fg][1,4]oxazonine] | 100 to 500 nM | 50 to 100 nM | < 2.5 nM
